{
  "source": "paper PMC5402304",
  "about": "“Oxoaporphine Metal Complexes (Co^II, Ni^II, Zn^II) with High Antitumor Activity by Inducing Mitochondria-Mediated Apoptosis and S-phase Arrest in HepG2” (Scientific Reports, 2017)",
  "type_in_all_cases": "cell-based, human",
  "key": {"[1]": {"system": "HepG2 cells", "assay": "Comet assay for DNA damage", "design": "unit not given here", "conditions": "HepG2, 1.0 μM, 24 h", "protocol": "After the observation of significant S-phase arrest caused by 1–3, the study of DNA damage assay is necessary. The single cell gel electrophoresis technique (comet assay) is a simple, sensitive, reliable, and rapid method to detect DNA damage in eukaryotic cell[39]. As shown in Table 3 and Fig. 6, 1–3 at 1.0 μM induced DNA damage (fragmentation or unwinding) appeared as fluorescent comets with remarkable increase of tails size, especially for 3.\nThe comet assay is a simple method for measuring DNA strand breaks in cells. The comet assay reagent kit was purchased from Trevigen, and the experiment was carried out according to the manufacturer’s instructions. After treatment with OD and 1–3 at 1.0 μM, HepG2 cells were harvested and suspended at 1 × 10^6 Hep-G2 cells/mL in PBS. The cells suspension was mixed with melted LM agarose at a ratio of 1:10 (v/v). An aliquot (75 μL) of the mixture was immediately pipetted onto the slide (Comet Slide TM). After refrigeration for 30 min, the slide was immersed in pre-chilled lysis solution and left on ice for 60 min, followed by immersing in freshly prepared alkaline solution (300 mM NaOH, 1 mM EDTA, pH > 13) for 60 min on ice in darkness. After DNA unwinding, the slide was subjected to alkaline solution for electrophoresis in a Savant ps 250 system set at 300 mA and 1 volt/cm for 30 min. After electrophoresis, the slide was rinsed with distilled H2O, fixed in 70% ethanol for 5 min and air-dried overnight. DNA was stained with SYBR Green I (Trevigen) and visualized under a fluorescence microscope (Nikon, Eclipse E600)."}, "[2]": {"system": "HepG2", "assay": "MTT cytotoxicity assay, HepG2", "protocol": "(§1) The in vitro cytotoxicity of OD, 1–3 and the corresponding metal salts were determined by MTT assay towards a panel of human tumor cells including HepG2, T-24, BEL-7404, MGC80-3, SK-OV-3/DDP and normal HL-7702 cells. As the positive control, cisplatin was dissolved at a concentration of 1 mM in 0.154 M NaCl[32].\n(§2) The human tumor cell lines (BEL-7404, HepG2, MGC80–3, T-24, SK-OV-3/DDP and HeLa cells) and the human normal liver cell line HL-7702 were obtained from Shanghai Cell Bank in Chinese Academy of Sciences. Cells were cultured in Dulbecco’s modified Eagle’s medium (DMEM) or RPMI-1640 medium, which supplemented with 10% fetal bovine serum (FBS) and 100 U/mL penicillin and streptomycin. Cells were cultured at 37 °C in a humidified atmosphere with 5% CO2/95% air. Tested compounds (2.0 mM) were prepared as DMSO stock solution before they were diluted to working concentrations by PBS buffer (containing 0.5% DMSO), while cisplatin dissolved in 0.9% sodium chloride solution was used as positive controls.\n(§3) Cells in their logarithmic phase were seeded in 96-well plates with 5.5 × 10^3/180 μL per well for 24 h. Then 20 μL of compounds at various concentrations were added to each well to achieve final concentrations of 1.25, 2.5, 5.0, 10.0, and 20.0 μM. All the cells were incubated with test compounds for another 48 h before MTT assay. Control wells contained media with 0.5% DMSO. After 48 h of cultivation, 10 μL of MTT (5 mg/mL in PBS) was added to each well, and cells were incubated at 37 °C for 6 h. The contents in the wells were pipetted out carefully, and the formazan crystals formed were dissolved in 100 μL of DMSO, and the absorbance was measured by enzyme labeling instrument with 490 nm/630 nm double wavelength measurement. The IC50 value was defined as a drug concentration killing 50% cells in comparison with untreated controls, which was calculated by the Bliss method (n = 5). All tests were repeated in at least three independent trials."}, "[3]": {"system": "BEL-7404", "assay": "MTT cytotoxicity assay, BEL-7404", "protocol": "as §1, §2, §3"}},
  "data": [
    {"substance": "[Zn(OD)2(H2O)2] (ClO4)2 [Complex 3]", "values": [
      {"measurement": "Comet length", "setting": "[1]", "value": "119.12 ± 6.59"},
      {"measurement": "Olive tail moment", "setting": "[1]", "value": "22.67 ± 3.76"},
      {"measurement": "Tail length", "setting": "[1]", "value": "58.67 ± 9.14"},
      {"measurement": "Tail moment", "setting": "[1]", "value": "30.46 ± 6.98"},
      {"measurement": "inhibitive ratio", "setting": "[2]; HepG2, 20 μmol/L, 48 h", "value": "89.58±1.22", "unit": "%"},
      {"measurement": "IC50", "setting": "[2]; HepG2, 48 h, MTT", "value": "0.39 ± 0.03", "unit": "µM"},
      {"measurement": "inhibitive ratio", "setting": "[3]; BEL-7404, 20 μmol/L, 48 h", "value": "61.00±0.19", "unit": "%"},
      {"measurement": "IC50", "setting": "[3]; BEL-7404, 48 h, MTT", "value": "12.6 ± 0.45", "unit": "µM"}
    ]}
  ]
}
